# Laboratory results taken from article PMC10385442, “Galactoside-Based Molecule Enhanced Antimicrobial Activity through Acyl Moiety Incorporation: Synthesis and In Silico Exploration for Therapeutic Target” (Pharmaceuticals, 2023).
# Where two headings read alike, the source gives them in different places.
# Legend:
# [1] = tested on: E. coli (G − ve) (ATCC 8739); test: Disc diffusion antibacterial susceptibility; assay type: cell-based, Escherichia coli; details: E. coli (ATCC 8739), triplicate, NI = No inhibition
# Text: (§1) The methodology employed to determine the antibacterial properties of the synthesized compounds (each compound dissolved in dimethyl sulfoxide 7% DMSO) involved the use of the disc diffusion approach. This was done following a previously described method with slight modifications. First, an inoculum was obtained from a bacterial colony and diluted to a concentration of 0.5 McFarland standard in sterile saltwater containing 0.9% NaCl. The suspension was then transferred to a sterile tube and allowed to settle for 5 min, after which the top homogeneous solution was transferred to another sterile tube. The concentration of the solution was adjusted to a 0.5 McFarland turbidity standard to obtain an inoculum of approximately 10^6 CFU/mL.
# [2] = tested on: P. aeruginosa (G − ve) (ATCC 9027); test: Disc diffusion antibacterial susceptibility; assay type: cell-based; details: for Diameter of Inhibition Zones: P. aeruginosa (ATCC 9027), triplicate, NI = No inhibition; for antibacterial activity category: P. aeruginosa, category by zone
# Text: as §1
# [3] = tested on: S. aureus (G + ve) (BTCC 19); test: Disc diffusion antibacterial susceptibility; assay type: cell-based; details: for Diameter of Inhibition Zones: S. aureus (BTCC 19), triplicate, NI = No inhibition
# Text: as §1
# [4] = tested on: S. typhi (G − ve) (AE 14612); test: Disc diffusion antibacterial susceptibility; assay type: cell-based, Salmonella typhi; details: S. typhi (AE 14612), triplicate, NI = No inhibition
# Text: as §1
# [5] = tested on: B. subtilis (G + ve) (ATCC 6633); test: Disc diffusion antibacterial susceptibility; assay type: cell-based, Bacillus subtilis; details: B. subtilis (ATCC 6633), triplicate, NI = No inhibition
# Text: as §1
# B. subtilis (ATCC 6633) = test: MIC and MBC by broth dilution; assay type: cell-based, Bacillus subtilis
# Procedure: (§2) To determine the minimum inhibitory concentration (MIC) of the synthesized compounds against the tested bacterial strains, a dilution method was employed. The objective was to establish the lowest concentration of the compound at which approximately 90% of bacterial growth was inhibited. To this end, a bacterial suspension of 300 μL at a concentration of 0.5 McFarland standard was seeded into individual tubes of 9 mL nutrient broth, with each tube receiving 1 mL of different concentrations of the synthesized compound at twofold serial dilutions and 7% DMSO, which served as the negative control. The tubes were then kept at 37 °C for a whole night. The MIC and MBC values were determined by using the naked eye to compare the turbidity of the tube to that of a reference medium with a 0.5 McFarland value.
# B. cereus (BTCC 19) = test: MIC and MBC by broth dilution; assay type: cell-based; details: for MBC: eradicates 99.9% of inoculum
# Procedure: as §2
# [6] = tested on: P. aeruginosa (ATCC 9027); test: MIC and MBC by broth dilution; assay type: cell-based
# Procedure: as §2
# S. typhi (AE 14612) = test: MIC and MBC by broth dilution; assay type: cell-based, Salmonella typhi
# Procedure: as §2
# [7] = tested on: Aspergillus niger (ATCC 16404); test: Antifungal poisoned food method, mycelial growth; assay type: cell-based; details: NI: no inhibition
# Procedure: (§3) The food poisoning method with potato dextrose agar (PDA) as the culture medium was used to test the antifungal action. Twenty milliliters of 45 °C sterilized, melted potato dextrose agar medium (PDA) was placed into sterile 70-mm glass Petri plates. The “poisoned food” method was used to determine how the synthesized MDGP (1) derivatives affected the growth of the fungal mycelium.
# [8] = tested on: Aspergillus flavus (ATCC 204304); test: Antifungal poisoned food method, mycelial growth; assay type: cell-based; details: NI: no inhibition
# Procedure: as §3
# E. coli (ATCC 8739) = test: MIC and MBC by broth dilution; assay type: cell-based, Escherichia coli; details: for MBC: eradicates 99.9% of inoculum
# Procedure: as §2
# [9] = Bacillus subtilis, ATCC6633, eradicates 99.9% of inoculum, read-out: MBC
# [10] = Bacillus subtilis, ATCC6633, read-out: MIC
# [11] = Pseudomonas aeruginosa, ATCC9027, eradicates 99.9% of inoculum, read-out: MBC
# [12] = Pseudomonas aeruginosa, ATCC9027, read-out: MIC
# [13] = S. typhi, eradicates 99.9% of inoculum
# [14] = Escherichia coli, ATCC8739, E. coli, read-out: MBC
# [15] = Escherichia coli, ATCC8739, E. coli, read-out: MIC
compound,measurement,setting,value
"CC[C@H]1OC(=O)[C@H](C)[C@@H](O[C@H]2C[C@@](C)(OC)[C@@H](O)[C@H](C)O2)[C@H](C)[C@@H](O[C@@H]2O[C@H](C)C[C@H](N(C)C)[C@H]2O)[C@](C)(O)C[C@@H](C)CN(C)[C@H](C)[C@@H](O)[C@]1(C)O [Azithromycin, reference compound]",Diameter of Inhibition Zones,[1],** 17.25 ± 0.2 mm
same,Diameter of Inhibition Zones,[2],** 18.5 ± 0.3 mm
same,Diameter of Inhibition Zones,[3],** 17.50 ± 0.2 mm
same,Diameter of Inhibition Zones,[4],** 18.0 ± 0.1 mm
same,Diameter of Inhibition Zones,[5],** 18.25 ± 0.2 mm
"CO[C@@H]1O[C@H](COC(=O)c2ccccc2Br)[C@H](OC(=O)c2ccc(Cl)cc2)[C@H](OC(=O)c2ccc(Cl)cc2)[C@H]1OC(=O)c1ccc(Cl)cc1 [Compound 6, Methyl 6-O-(2-bromobenzoyl)-2,3,4-tri-O-(4-chlorobenzoyl)-β-D-galactopyranoside]",MIC,B. subtilis (ATCC 6633),500 µg/mL
same,MBC,B. subtilis (ATCC 6633); [9],16000 µg/mL
same,MIC,B. subtilis (ATCC 6633); [10],500 µg/mL
same,MBC,B. subtilis (ATCC 6633); eradicates 99.9% of inoculum,16000 µg/mL
same,Diameter of Inhibition Zones,[1],11.25 ± 0.2 mm
same,Diameter of Inhibition Zones,[2],11.50 ± 0.1 mm
same,Diameter of Inhibition Zones,[3],11.50 ± 0.3 mm
same,MIC,B. cereus (BTCC 19),2000 µg/mL
same,MBC,"B. cereus (BTCC 19); Bacillus cereus, read-out: MBC",8000 µg/mL
same,MIC,"B. cereus (BTCC 19); Bacillus cereus, read-out: MIC",2000 µg/mL
same,MBC,B. cereus (BTCC 19),8000 µg/mL
same,MIC,[6],8000 µg/mL
same,MBC,[6]; [11],16000 µg/mL
same,MIC,[6]; [12],8000 µg/mL
same,MBC,[6]; eradicates 99.9% of inoculum,16000 µg/mL
same,Diameter of Inhibition Zones,[4],* 13.00 ± 0.3 mm
same,Diameter of Inhibition Zones,[5],* 12.75 ± 0.1 mm
same,MIC,S. typhi (AE 14612); S. typhi,2000 µg/mL
same,MBC,S. typhi (AE 14612); [13],8000 µg/mL
same,MBC,"S. typhi (AE 14612); Salmonella enterica, TYPHI",8000 µg/mL
same,MIC,"S. typhi (AE 14612); Salmonella enterica, TYPHI",2000 µg/mL
same,% Inhibition of Fungal Mycelial Growth,[7],* 78.81 ± 1.0%
same,% Inhibition of Fungal Mycelial Growth,[8],* 81.97 ± 1.2%
same,MIC,E. coli (ATCC 8739); E. coli,1000 µg/mL
same,MBC,E. coli (ATCC 8739); E. coli,8000 µg/mL
same,MBC,E. coli (ATCC 8739); [14],16000 µg/mL
same,MIC,E. coli (ATCC 8739); [15],1000 µg/mL
"CO[C@@H]1O[C@H](COC(=O)c2ccccc2Br)[C@H](O)[C@H](O)[C@H]1O [Compound 2, Methyl 6-O-(2-bromobenzoyl)-β-D-galactopyranoside]",Diameter of Inhibition Zones,[2],* 15.00 ± 0.1 mm
same,antibacterial activity category,[2],high activity (high activity at 15 mm or more)
same,Diameter of Inhibition Zones,[3],10.50 ± 0.2 mm
same,Diameter of Inhibition Zones,[4],11.25 ± 0.2 mm
same,% Inhibition of Fungal Mycelial Growth,[7],* 72.88 ± 1.0%
same,% Inhibition of Fungal Mycelial Growth,[8],* 85.66 ± 0.9%
"CO[C@@H]1O[C@H](COC(=O)c2ccccc2Br)[C@H](OC(=O)c2ccc(C(C)(C)C)cc2)[C@H](OC(=O)c2ccc(C(C)(C)C)cc2)[C@H]1OC(=O)c1ccc(C(C)(C)C)cc1 [Compound 7, Methyl 6-O-(2-bromobenzoyl)-2,3,4-tri-O-(4-t-butylbenzoyl)-β-D-galactopyranoside]",Diameter of Inhibition Zones,[1],8.50 ± 0.1 mm
same,Diameter of Inhibition Zones,[2],7.50 ± 0.3 mm
same,Diameter of Inhibition Zones,[4],9.00 ± 0.3 mm
same,Diameter of Inhibition Zones,[5],7.75 ± 0.1 mm
"C[C@@H]1[C@H](O)[C@@H](C)/C=C/C=C/CC/C=C/C=C/C=C/C=C/C(O[C@H]2O[C@H](C)[C@@H](O)[C@H](N)[C@@H]2O)CC2O[C@](O)(CC(O)C(O)CCC(O)CC(O)CC(O)CC(=O)O[C@H]1C)CC(O)C2C(=O)O (stereo partly drawn) [Nystatin, reference compound]",% Inhibition of Fungal Mycelial Growth,[7],** 66.7 ± 1.1%
same,% Inhibition of Fungal Mycelial Growth,[8],** 65.2 ± 1.2%
"CCCCCCCCCCCC(=O)O[C@H]1[C@@H](OC(=O)CCCCCCCCCCC)[C@@H](COC(=O)c2ccccc2Br)O[C@@H](OC)[C@@H]1OC(=O)CCCCCCCCCCC [Compound 3, Methyl 6-O-(2-bromobenzoyl)-2,3,4-tri-O-lauroyl-β-D-galactopyranoside]",MIC,B. subtilis (ATCC 6633),8000 µg/mL
same,MBC,B. subtilis (ATCC 6633); [9],16000 µg/mL
same,MIC,B. subtilis (ATCC 6633); [10],8000 µg/mL
same,MBC,B. subtilis (ATCC 6633); eradicates 99.9% of inoculum,16000 µg/mL
same,Diameter of Inhibition Zones,[1],11.00 ± 0.2 mm
same,Diameter of Inhibition Zones,[2],11.25 ± 0.3 mm
same,Diameter of Inhibition Zones,[3],* 15.50 ± 0.3 mm
same,antibacterial activity category,[3]; category by zone,high activity (high activity at 15 mm or more)
same,MIC,B. cereus (BTCC 19),8000 µg/mL
same,MBC,"B. cereus (BTCC 19); Bacillus cereus, read-out: MBC",8000 µg/mL
same,MIC,"B. cereus (BTCC 19); Bacillus cereus, read-out: MIC",8000 µg/mL
same,MBC,B. cereus (BTCC 19),8000 µg/mL
same,MBC,[6]; [11],16000 µg/mL
same,MIC,[6]; [12],250 µg/mL
same,MBC,[6]; eradicates 99.9% of inoculum,16000 µg/mL
same,Diameter of Inhibition Zones,[4],* 12.25 ± 0.1 mm
same,Diameter of Inhibition Zones,[5],* 13.00 ± 0.1 mm
same,MBC,S. typhi (AE 14612); [13],8000 µg/mL
same,MBC,"S. typhi (AE 14612); Salmonella enterica, TYPHI",8000 µg/mL
same,MIC,"S. typhi (AE 14612); Salmonella enterica, TYPHI",125 µg/mL
same,% Inhibition of Fungal Mycelial Growth,[7],* 64.83 ± 1.1%
same,% Inhibition of Fungal Mycelial Growth,[8],* 84.02 ± 1.3%
same,MIC,E. coli (ATCC 8739); E. coli,2000 µg/mL
same,MBC,E. coli (ATCC 8739); E. coli,16000 µg/mL
same,MBC,E. coli (ATCC 8739); [14],16000 µg/mL
same,MIC,E. coli (ATCC 8739); [15],2000 µg/mL
"CCCCCCCCCCCCCC(=O)O[C@H]1[C@@H](OC(=O)CCCCCCCCCCCCC)[C@@H](COC(=O)c2ccccc2Br)O[C@@H](OC)[C@@H]1OC(=O)CCCCCCCCCCCCC [Compound 4, Methyl 6-O-(2-bromobenzoyl)-2,3,4-tri-O-myristoyl-β-D-galactopyranoside]",% Inhibition of Fungal Mycelial Growth,[7],* 71.19 ± 1.0%
"CO[C@@H]1O[C@H](COC(=O)c2ccccc2Br)[C@H](OC(=O)c2cccc(Cl)c2)[C@H](OC(=O)c2cccc(Cl)c2)[C@H]1OC(=O)c1cccc(Cl)c1 [Compound 5, Methyl 6-O-(2-bromobenzoyl)-2,3,4-tri-O-(3-chlorobenzoyl)-β-D-galactopyranoside]",Diameter of Inhibition Zones,[2],* 18.25 ± 0.3 mm
same,antibacterial activity category,[2],high activity (high activity at 15 mm or more)
same,% Inhibition of Fungal Mycelial Growth,[7],48.73 ± 1.1%
same,% Inhibition of Fungal Mycelial Growth,[8],* 81.97 ± 1.0%
